According to PubChem BioAssay (NCI):
“And” between values parts separate entries of the source, which are not always exact repeats. Identical values can stand only once.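 Step 1: Grow cells in 96-well plates. Step 2: Expose to compound for 48 hours at 5 concentrations. Step 3: Interpolate endpoints linearly; if unreached, use highest concentration. Abbreviation: GI50, concentration required for 50% inhibition of growth. TGI: concentration producing complete growth inhibition.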

Tests used:
Test in all cases: NCI anticancer screen, dose series, 48 h
[1] = tested on: 786-0 renal
[2] = tested on: SK-OV-3 ovarian
[3] = tested on: SF-295 CNS
[4] = tested on: UO-31 renal
[5] = tested on: HCT-15 colon
[6] = tested on: MALME-3M melanoma
[7] = tested on: SR leukemia
[8] = tested on: MCF7 breast
[9] = tested on: BT-549 breast
[10] = tested on: A498 renal

Row | SMILES | GI50 [1] | TGI [1] | GI50 [2] | TGI [2] | GI50 [3] | TGI [3] | GI50 [4] | TGI [4] | GI50 [5] | TGI [5] | GI50 [6] | TGI [6] | GI50 [7] | TGI [7] | GI50 [8] | TGI [8] | GI50 [9] | TGI [9] | GI50 [10] | TGI [10]
1 | O=S(=O)([O-])c1ccc(N=Cc2ccccc2[O-])cc1.O=S(=O)([O-])c1ccc(N=Cc2ccccc2[O-])cc1.[Co+2] | 76.7 µM | > 100 µM | 36.6 µM | > 100 µM | > 100 µM | > 100 µM | 69.3 µM | > 100 µM | > 100 µM | > 100 µM | > 100 µM | > 100 µM | 30.3 µM | > 100 µM |  |  |  |  |  | 
2 | Cc1nc2c(c(N3CCCc4ccccc43)n1)CCC2 | < 0.01 µM | > 100 µM | < 0.01 µM | > 100 µM | < 0.01 µM | > 100 µM | < 0.01 µM | > 100 µM | < 0.01 µM | > 100 µM |  |  | < 0.01 µM | 13.1 µM | 0.0228 µM | > 100 µM | < 0.01 µM | 19.6 µM | < 0.01 µM | 
3 | CCCCOC(=O)c1ccc(N)cc1 | 32.4 µM | > 100 µM | > 100 µM | > 100 µM | 19 µM | 89.1 µM | 8.74 µM | > 100 µM | 8 µM | > 100 µM | > 100 µM | > 100 µM |  |  | 74.6 µM | > 100 µM | 77.6 µM | > 100 µM | 33.6 µM | > 100 µM
4 | COC(=O)c1ccccc1N(C(=O)c1ccccc1)c1ccccc1C |  | > 100 µM |  | 69.1 µM |  | > 100 µM |  | > 100 µM |  | > 100 µM |  | > 100 µM |  | 99.4 µM |  |  |  |  |  | 80.1 µM
5 | O=C(O)C[C@@H](Cl)[C@H](NC(=O)OCc1ccccc1)C(=O)O |  | > 100 µM |  | > 100 µM |  | > 100 µM |  | > 100 µM |  | > 100 µM |  | > 100 µM |  |  |  |  |  |  |  | > 100 µM
6 | O=C(O)[C@H](Cc1c[nH]c2ccccc12)N1C(=O)c2ccccc2C1=O |  | > 100 µM |  | > 100 µM |  | > 100 µM |  | > 100 µM |  | > 100 µM |  | > 100 µM |  |  |  | > 100 µM |  | > 100 µM | 87.3 µM | > 100 µM
7 | CC(CC(=O)N1C(=O)C(C)(C)[C@@H](O)[C@H]1CC(C)C(Cl)(Cl)Cl)C(Cl)(Cl)Cl (some centres not stated) |  | > 100 µM |  | > 100 µM |  | > 100 µM |  | > 100 µM |  | > 100 µM |  | > 100 µM |  |  |  |  |  |  |  | > 100 µM
8 | C=C(CO)CC(O)c1cc(OC)ccc1OC (configuration not stated) |  | > 100 µM |  | > 100 µM |  | > 100 µM |  | > 100 µM |  | > 100 µM |  | > 100 µM |  |  |  |  |  |  |  | 
9 | N#CC(/C(CCC(=O)Nc1ccc(Cl)cc1)=N/NC(=O)c1cc2ccccc2cc1O)c1ccccc1 (configuration not stated) |  | > 100 µM |  |  |  | > 100 µM |  | > 100 µM |  |  |  | > 100 µM |  |  |  |  |  |  |  | 
10 | CCOC(=O)C(=O)Nc1nc2c(OCC)cccc2s1 |  | > 100 µM |  | > 100 µM |  | > 100 µM |  | > 100 µM |  | > 100 µM |  | > 100 µM |  |  |  |  |  |  |  | > 100 µM
11 | CC(C)C12Cc3c(ccc4ccccc34)OC1(C)Oc1ccc3ccccc3c1C2 (configuration not stated) |  | > 100 µM |  | > 100 µM |  | > 100 µM |  | > 100 µM |  |  |  | > 100 µM |  | > 100 µM |  |  |  |  |  | 
12 | Cc1n[nH]c(=S)n(C)c1=S |  | > 100 µM |  | > 100 µM |  | > 100 µM |  | > 100 µM |  | > 100 µM |  | > 100 µM |  |  |  |  |  |  |  | > 100 µM
13 | COC(=O)C1=C(O)[C@H](C(=O)OC)C2(O)C(C(=O)OC)[C@H](c3ccc(OC(=O)C(C)c4ccccc4)cc3)C[C@@H]1[C@@H]2C(=O)OC (some centres not stated) | 38.9 µM | > 50 µM | 33.3 µM | > 50 µM | 16.1 µM | > 50 µM | 29.5 µM | > 50 µM | 18.4 µM | > 50 µM |  |  | 29.9 µM | > 50 µM | 33.7 µM | > 50 µM | 19.3 µM | > 50 µM |  | 
14 | Cc1ccc(Nc2nccc(N(C)c3ccc4c(C)n(C)nc4c3)n2)cc1S(N)(=O)=O | 4.03 µM and 2.8 µM and 5.96 µM | > 100 µM | 2.93 µM and 4.9 µM and 4.24 µM | 29.6 µM and > 10 µM and > 100 µM | 3.57 µM and 2.78 µM and 9.92 µM | > 100 µM | 3.13 µM and 0.539 µM and 4.67 µM | > 100 µM | 4.04 µM and 2.77 µM and 5.98 µM | > 100 µM |  | > 74.4 µM | 4.08 µM and 3.49 µM and 5.95 µM | > 100 µM and > 10 µM and 37.9 µM | 4.06 µM and 3.1 µM and 6.69 µM | > 100 µM | 1.7 µM and 1.46 µM and 5.02 µM | 7.66 µM and > 10 µM and 36.6 µM |  | 
15 | NCCc1ccc(S(=O)(=O)F)cc1 | 58.2 µM | > 100 µM | > 100 µM | > 100 µM | 64.5 µM | > 100 µM | > 100 µM | > 100 µM | 64.4 µM | > 100 µM | 96.5 µM | > 100 µM |  |  | 63.5 µM | > 100 µM | 27.9 µM | > 100 µM |  | 
16 | CSCS(=O)C[C@H](CO)NC(=O)/C=C/c1c(C)[nH]c(=O)[nH]c1=O (some centres not stated) |  | 5.23 µM |  | 6.11 µM and 6.96 µM | 0.406 µM | 2.64 µM and 2.37 µM | 2.97 µM | 10.2 µM and 4.26 µM | 2.93 µM | 13.6 µM and 6.92 µM | 1.08 µM | 3.08 µM and 2.05 µM |  | 22.8 µM |  | 6.86 µM |  |  | 0.434 µM | 2 µM and 2.06 µM
17 | N/N=C1\C(=O)N(Cc2ccccc2)C(=O)C1C(=O)NCc1ccccc1 (configuration not stated) |  | > 100 µM |  |  |  | > 100 µM |  | > 100 µM |  | > 100 µM |  | > 100 µM |  | > 100 µM |  |  |  |  |  | > 100 µM
18 | COc1cc2c(c(OC)c1OC)-c1ccc(O)cc1[C@@H](NC(C)=O)CC2 | 0.0779 µM | > 100 µM | 0.0377 µM | > 100 µM | 0.0341 µM | > 100 µM | 0.279 µM | > 51.2 µM | 0.123 µM | > 100 µM |  |  | 0.0265 µM |  | 0.0376 µM | > 100 µM | 0.152 µM | > 100 µM | 0.0269 µM | 0.0956 µM
19 | N.N.N.N.N.NC(=O)[O-].[Co+3].[I-] | > 100 µM | > 100 µM | > 100 µM | > 100 µM | > 100 µM | > 100 µM | > 100 µM | > 100 µM | > 100 µM | > 100 µM | > 100 µM | > 100 µM |  |  |  |  |  |  | > 100 µM | > 100 µM
